# According to ChEMBL document CHEMBL4304775, “Identification and characterization of a novel chemotype for human TLR8 inhibitors” (Eur J Med Chem, 2019):
# Activity calls are given as the source filed them. The rule behind the calls is not given here.
# How the values were obtained:
# THP-1 [1] = assay: Antiinflammatory activity in human THP1 cells assessed as reduction in CL075-induced TNF secretion at 10 to 25 uM preincubated for 1 hr followed by CL075-stimulation and measured after 4 hrs by ELISA relative to control; assay type: functional
# [2] = biological target: Toll-like receptor 3 (Homo sapiens) (UniProt O15455); assay: […] at TLR3 in human THP1 cells assessed as inhibition of poly(I:C)-induced IL-8 secretion preincubated for 1 hr followed by poly(I:C)-stimulation and measured after 24 hrs by ELISA; assay type: cell-based
# Toll-like receptor 3 (Homo sapiens), sequence (O15455 whole entry): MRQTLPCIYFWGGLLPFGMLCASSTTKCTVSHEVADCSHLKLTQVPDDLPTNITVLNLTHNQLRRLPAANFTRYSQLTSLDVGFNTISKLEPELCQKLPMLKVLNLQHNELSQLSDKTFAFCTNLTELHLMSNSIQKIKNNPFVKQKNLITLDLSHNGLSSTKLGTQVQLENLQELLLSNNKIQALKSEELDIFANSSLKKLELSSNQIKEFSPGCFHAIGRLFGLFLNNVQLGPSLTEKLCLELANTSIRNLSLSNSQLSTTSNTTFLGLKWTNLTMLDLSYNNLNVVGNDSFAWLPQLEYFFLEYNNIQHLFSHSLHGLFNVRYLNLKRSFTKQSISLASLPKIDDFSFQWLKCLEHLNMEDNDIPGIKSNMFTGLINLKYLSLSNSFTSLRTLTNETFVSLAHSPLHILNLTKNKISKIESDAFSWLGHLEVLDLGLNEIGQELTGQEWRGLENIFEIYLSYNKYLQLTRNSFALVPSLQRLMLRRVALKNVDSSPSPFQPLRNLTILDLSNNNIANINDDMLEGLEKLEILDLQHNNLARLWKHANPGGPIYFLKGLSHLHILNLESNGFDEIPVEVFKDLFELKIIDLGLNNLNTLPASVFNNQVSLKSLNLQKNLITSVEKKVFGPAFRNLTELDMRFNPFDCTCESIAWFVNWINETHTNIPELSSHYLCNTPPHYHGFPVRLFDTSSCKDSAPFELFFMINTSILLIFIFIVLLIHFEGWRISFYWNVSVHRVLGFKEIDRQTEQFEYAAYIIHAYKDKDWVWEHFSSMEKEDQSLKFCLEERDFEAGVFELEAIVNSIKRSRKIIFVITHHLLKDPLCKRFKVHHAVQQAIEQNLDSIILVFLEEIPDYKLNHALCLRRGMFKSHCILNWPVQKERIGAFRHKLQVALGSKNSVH
# [3] = biological target: T1, Toll-like receptor 8 (Homo sapiens) (UniProt Q9NR97); assay: Antagonist activity at human TLR8 expressed in HEK-Blue cells assessed as reduction in CL075-induced NF-kappaB activation at 10 to 25 uM incubated for 1 hr followed by CL075-stimulation and measured after 24 hrs by quanti-blue SEAP assay relative to control; assay type: cell-based
# T1 sequence (whole entry): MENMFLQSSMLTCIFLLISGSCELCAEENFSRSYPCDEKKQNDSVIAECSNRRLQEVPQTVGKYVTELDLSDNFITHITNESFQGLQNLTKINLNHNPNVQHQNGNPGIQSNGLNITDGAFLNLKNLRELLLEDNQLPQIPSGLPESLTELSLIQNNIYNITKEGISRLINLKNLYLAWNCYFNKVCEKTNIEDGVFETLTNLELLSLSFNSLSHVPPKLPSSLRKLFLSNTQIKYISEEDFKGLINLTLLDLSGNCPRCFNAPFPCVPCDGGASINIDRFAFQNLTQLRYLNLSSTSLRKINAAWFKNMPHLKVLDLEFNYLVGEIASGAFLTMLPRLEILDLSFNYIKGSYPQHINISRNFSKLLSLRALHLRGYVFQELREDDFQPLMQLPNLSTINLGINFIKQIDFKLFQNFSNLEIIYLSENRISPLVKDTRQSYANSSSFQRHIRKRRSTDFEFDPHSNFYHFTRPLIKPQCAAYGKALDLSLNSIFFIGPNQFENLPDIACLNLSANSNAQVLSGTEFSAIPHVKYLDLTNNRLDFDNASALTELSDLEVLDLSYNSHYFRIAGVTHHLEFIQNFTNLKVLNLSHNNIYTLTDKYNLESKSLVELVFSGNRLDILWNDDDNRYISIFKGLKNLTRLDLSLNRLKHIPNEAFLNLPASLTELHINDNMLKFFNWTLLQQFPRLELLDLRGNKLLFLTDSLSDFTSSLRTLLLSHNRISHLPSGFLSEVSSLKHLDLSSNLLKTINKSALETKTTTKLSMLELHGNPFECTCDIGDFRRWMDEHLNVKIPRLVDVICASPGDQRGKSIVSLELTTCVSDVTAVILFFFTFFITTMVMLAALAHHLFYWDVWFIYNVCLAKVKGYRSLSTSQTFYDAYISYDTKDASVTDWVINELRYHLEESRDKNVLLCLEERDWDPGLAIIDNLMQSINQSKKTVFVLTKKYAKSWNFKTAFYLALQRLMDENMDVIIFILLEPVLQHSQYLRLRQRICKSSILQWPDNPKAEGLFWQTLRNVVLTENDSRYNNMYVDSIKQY
# [4] = biological target: T2, Toll-like receptor 7 (Homo sapiens) (UniProt Q9NYK1); assay: Antagonist activity at human TLR7 expressed in HEK-Blue cells assessed as inhibition of CL075-induced NF-kappaB activation incubated for 1 hr followed by CL075-stimulation and measured after 24 hrs by quanti-blue SEAP assay; assay type: cell-based
# T2 sequence (whole entry): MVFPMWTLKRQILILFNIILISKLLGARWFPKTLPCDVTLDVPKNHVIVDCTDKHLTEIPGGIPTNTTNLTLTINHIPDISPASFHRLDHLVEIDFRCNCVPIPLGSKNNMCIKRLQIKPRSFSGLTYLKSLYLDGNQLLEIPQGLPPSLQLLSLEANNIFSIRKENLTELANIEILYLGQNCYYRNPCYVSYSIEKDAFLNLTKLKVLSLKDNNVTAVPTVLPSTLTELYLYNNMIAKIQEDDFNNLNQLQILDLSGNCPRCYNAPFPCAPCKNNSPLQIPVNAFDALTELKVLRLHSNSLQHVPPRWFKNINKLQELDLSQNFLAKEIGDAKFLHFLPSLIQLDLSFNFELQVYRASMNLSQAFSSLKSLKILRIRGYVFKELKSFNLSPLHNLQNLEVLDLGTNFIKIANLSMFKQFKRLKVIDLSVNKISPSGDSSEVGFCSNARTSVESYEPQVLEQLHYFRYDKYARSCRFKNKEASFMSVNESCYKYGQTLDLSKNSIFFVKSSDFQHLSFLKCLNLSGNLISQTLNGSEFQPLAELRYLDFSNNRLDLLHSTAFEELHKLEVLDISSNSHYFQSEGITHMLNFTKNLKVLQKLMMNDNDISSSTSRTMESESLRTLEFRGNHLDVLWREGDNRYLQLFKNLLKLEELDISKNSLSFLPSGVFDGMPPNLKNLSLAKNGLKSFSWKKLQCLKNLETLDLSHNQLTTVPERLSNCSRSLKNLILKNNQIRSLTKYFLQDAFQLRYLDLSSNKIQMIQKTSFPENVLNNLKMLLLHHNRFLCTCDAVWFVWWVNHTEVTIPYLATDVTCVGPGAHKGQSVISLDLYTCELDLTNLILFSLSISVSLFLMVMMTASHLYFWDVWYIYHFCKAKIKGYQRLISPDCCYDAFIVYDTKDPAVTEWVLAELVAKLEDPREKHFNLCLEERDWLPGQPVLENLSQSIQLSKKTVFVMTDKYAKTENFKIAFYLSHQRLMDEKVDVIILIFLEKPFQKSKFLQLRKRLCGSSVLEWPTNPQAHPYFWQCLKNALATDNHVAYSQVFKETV
# [5] = biological target: Toll-like receptor 5 (Homo sapiens) (UniProt O60602); assay: […] at TLR5 in human THP1 cells assessed as inhibition of flagellin-induced IL-8 secretion preincubated for 1 hr followed by flagellin stimulation and measured after 24 hrs by ELISA; assay type: cell-based
# Toll-like receptor 5 (Homo sapiens), sequence (O60602 whole entry): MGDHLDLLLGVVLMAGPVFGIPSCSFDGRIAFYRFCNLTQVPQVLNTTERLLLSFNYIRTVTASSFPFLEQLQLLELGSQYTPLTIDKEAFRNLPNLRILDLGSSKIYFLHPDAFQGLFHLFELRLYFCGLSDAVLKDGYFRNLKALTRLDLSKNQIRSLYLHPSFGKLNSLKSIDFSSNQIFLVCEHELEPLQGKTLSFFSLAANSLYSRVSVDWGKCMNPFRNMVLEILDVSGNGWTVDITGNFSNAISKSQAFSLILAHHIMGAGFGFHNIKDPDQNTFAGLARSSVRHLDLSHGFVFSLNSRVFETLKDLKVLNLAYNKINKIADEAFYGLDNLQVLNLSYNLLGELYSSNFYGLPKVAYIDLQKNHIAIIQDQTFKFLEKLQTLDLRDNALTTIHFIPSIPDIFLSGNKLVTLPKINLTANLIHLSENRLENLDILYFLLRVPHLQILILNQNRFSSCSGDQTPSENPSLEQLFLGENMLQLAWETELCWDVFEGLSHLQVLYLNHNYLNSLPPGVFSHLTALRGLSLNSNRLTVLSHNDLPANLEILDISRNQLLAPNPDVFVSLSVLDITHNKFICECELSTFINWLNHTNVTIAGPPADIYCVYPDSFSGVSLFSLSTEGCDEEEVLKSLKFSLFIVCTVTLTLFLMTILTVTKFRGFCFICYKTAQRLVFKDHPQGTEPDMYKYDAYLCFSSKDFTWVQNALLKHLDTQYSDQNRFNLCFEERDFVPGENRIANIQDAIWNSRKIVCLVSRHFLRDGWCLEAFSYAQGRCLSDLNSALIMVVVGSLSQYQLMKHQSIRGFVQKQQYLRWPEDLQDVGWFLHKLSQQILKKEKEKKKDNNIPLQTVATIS
# [6] = biological target: Toll-like receptor 4 (Homo sapiens) (UniProt O00206); assay: […] at TLR4 in human THP1 cells assessed as inhibition of LPS-induced IL-8 secretion preincubated for 1 hr followed by LPS-stimulation and measured after 24 hrs by ELISA; assay type: cell-based
# Toll-like receptor 4 (Homo sapiens), sequence (O00206 whole entry): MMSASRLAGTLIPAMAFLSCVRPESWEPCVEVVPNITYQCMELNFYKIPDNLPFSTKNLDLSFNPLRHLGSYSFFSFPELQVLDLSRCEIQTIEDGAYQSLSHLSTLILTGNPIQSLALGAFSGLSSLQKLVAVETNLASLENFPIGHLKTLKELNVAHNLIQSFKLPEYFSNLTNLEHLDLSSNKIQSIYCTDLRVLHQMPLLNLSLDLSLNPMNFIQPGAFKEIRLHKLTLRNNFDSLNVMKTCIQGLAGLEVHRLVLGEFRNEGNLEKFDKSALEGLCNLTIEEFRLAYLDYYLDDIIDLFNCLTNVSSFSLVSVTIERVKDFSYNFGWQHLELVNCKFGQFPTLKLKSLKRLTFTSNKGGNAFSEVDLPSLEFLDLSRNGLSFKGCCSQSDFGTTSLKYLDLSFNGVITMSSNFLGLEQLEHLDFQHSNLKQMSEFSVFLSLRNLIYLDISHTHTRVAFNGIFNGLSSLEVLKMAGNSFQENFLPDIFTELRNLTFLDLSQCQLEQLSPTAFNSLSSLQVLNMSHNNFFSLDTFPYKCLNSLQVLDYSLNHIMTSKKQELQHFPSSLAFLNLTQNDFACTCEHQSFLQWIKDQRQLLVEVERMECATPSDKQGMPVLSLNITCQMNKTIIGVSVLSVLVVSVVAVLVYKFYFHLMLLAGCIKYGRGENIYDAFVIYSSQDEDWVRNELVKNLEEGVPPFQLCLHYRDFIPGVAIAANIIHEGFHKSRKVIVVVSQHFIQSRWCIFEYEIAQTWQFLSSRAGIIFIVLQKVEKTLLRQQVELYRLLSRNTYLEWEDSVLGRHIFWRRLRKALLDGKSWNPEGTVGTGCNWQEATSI
# [7] = biological target: T1, Toll-like receptor 8 (Homo sapiens); assay: Antagonist activity at human TLR8 expressed in HEK-Blue cells assessed as reduction in CL075-induced NF-kappaB activation at 10 uM incubated for 1 hr followed by CL075-stimulation and measured after 24 hrs by quanti-blue SEAP assay; assay type: cell-based
# [8] = Cytotoxicity against human HEK-Blue cells transfected with hTLR8 at 25 to 50 uM after 24 hrs by MTT assay; assay type: cell-based
# THP-1 [9] = assay: Cytotoxicity against human THP1 cells at 25 to 100 uM after 24 hrs by MTT assay; assay type: cell-based; conditions: thp-1, 24 h
# [10] = biological target: T1, Toll-like receptor 8 (Homo sapiens); assay: Activation of human TLR8 expressed in HEK-Blue cells assessed as increase in NF-kappaB activation at 5 to 25 uM incubated for 24 hrs by quanti-blue SEAP assay; assay type: cell-based
# THP-1 [11] = assay: Cytotoxicity against human THP1 cells assessed as reduction in cell viability at 50 uM after 24 hrs by MTT assay; assay type: cell-based; conditions: thp-1, 24 h
inhibition [2],inhibition [3],inhibition [4],inhibition [5],inhibition [6],inhibition [7],Activity [10],Compound,inhibition (INH) (THP-1 [1]),Activity [8],Activity (THP-1 [9]),Activity (THP-1 [11])
inactive,100%,inactive,inactive,inactive,Active,inactive,CCCCNc1nc(-c2cccs2)cc(C(F)(F)F)n1,>60%,Non-Toxic,Non-Toxic,
inactive,100%,inactive,inactive,inactive,Active,inactive,FC(F)(F)c1cc(-c2ccccc2)nc(NCc2cccs2)n1,40%,Non-Toxic,Non-Toxic,
inactive,50%,inactive,inactive,inactive,Active,inactive,FC(F)(F)c1cc(-c2ccco2)nc(NCc2cccs2)n1,40%,,,Toxic
